Values of other authors as cited in publication PMC10097024, “Cytotoxic and Antibacterial Prenylated Acylphloroglucinols from Hypericum olympicum L” (Plants, 2023).
In brackets after ≈: the same amount, converted by molar mass. Several values for one entry are separate records, joined by “and”; a condition that tells them apart may be missing. Equal values may be shown once. Read-outs that look alike come from different tables or passages of the source.

What was measured:
MDA-MB-231 cells = settings: cited from earlier work
K-562 cells = settings: K-562; cited from earlier work
MRSA = settings: MRSA; cited from earlier work
leukemia U937 cells = settings: lowest IC50 value; cited from earlier work
[1] = tested on: prostate cancer cell PC-3; settings: cited from earlier work
S. aureus = settings: cited from earlier work
Sarcina lutea = settings: cited from earlier work
[2] = tested on: Corynebacterium diphtherie; settings: cited from earlier work
E. faecalis = settings: cited from earlier work
[3] = tested on: Gram-negative bacteria, such as E. coli and fungi; settings: cited from earlier work

## CC(C)=CCC[C@]1(C)[C@@H](CC=C(C)C)C[C@@]2(CC=C(C)C)C(=O)[C@]1(C(=O)C(C)C)C(=O)C(CC=C(C)C)=C2O [hyperforin]
MDA-MB-231 cells
  IC50: 12 µM
K-562 cells
  IC50: 21 µM
MRSA
  MIC: 1 mg/L (≈ 1.86 µM)
Leukemia U937 cells
  IC50: 1800 nM
[1]
  IC50: 37 µM
S. aureus
  MIC: 0.1 mg/L and 0.19 μM
S. aureus; listed as Hyperforin
  MIC: 50 mg/L (≈ 93.1 µM)
Sarcina lutea
  MIC: 0.1 mg/L and 0.19 μM
[2]
  MIC: 0.1 mg/L and 0.19 μM
E. faecalis
  MIC: 1 mg/L (≈ 1.86 µM)
[3]
  MIC: 400 mg/L (≈ 745 µM)
